Like-named read-outs stand apart in the source and are kept apart here.
Key:
[1] = tested on: Pseudomonas MS ATCC 25262; assay: Oxidation of sec-alcohols to ketones by resting cell suspension; assay type: cell-based; conditions: methanol-grown, facultative
Method: (§1) The pH of the nutrient medium was adjusted to 7.0 by the addition of acid or base and 50 ml. samples of the nutrient medium were charged into a plurality of 300 ml. shaker flasks. The shaker flasks were inoculated with an inoculating loop of cells from an agar plate containing homogeneous colonies of the microorganisms on the plate (the purity of the isolates was confirmed by microscopic examination). The isolates had been maintained on methanol (0.4% V/V) agar plates or on agar plates under an atmosphere of methane and air having a 1:1 V/V gas ratio which had been transferred every two weeks. For growth on methanol, the medium was supplemented with 0.4% methanol. For growth on methane, the gaseous phase of the inoculated flasks was replaced with a gas mixture comprised on methane and air having a ratio of 1:1 on a V/V basis. The inoculated flasks were sealed air-tight and were incubated on a rotary shaker of orbital radius 2.5 cm. at 250 rpm and at 30° C. for two days until turbidity in the medium had developed. The cells were harvested by centrifugation at 10,000×g. at 4° C. for 30 minutes. The cell pellet was washed twice with a 0.05 M phosphate buffer at a pH of 7.0 (containing 0.02 M MgCl2). The washed cells were then suspended in a 0.05 M phosphate buffer at pH 7.0.
(§2) A 0.5 ml. sample of each washed cell suspension (2 mg. cells) was put into 10 ml. vials at 4° C. which were sealed with a rubber cap. The gaseous phase of the vials was removed with vacuum and then was replaced with a gas mixture of the substrate reactant (i.e., alkane or secondary alcohol) and oxygen at a 1:1 V/V ratio. (In the case of a liquid substrate, i.e., secondary alcohol, 10 μl of the substrate was put in the 10 ml. vials). […] Samples of product (1-3 μl) were withdrawn periodically with a microsyringe and the products were analyzed by gas chromatography (ionization flame detector column).
(§3) The procedure in Example 1 was repeated except that a plurality of methanol-utilizing methylotrophic microorganisms were each aerobically grown in a methanol-containing nutrient medium instead of a methane-containing medium. The nutrients in the medium were the same as indicated in Example 1 except that 0.4% V/V methanol was used as the alcohol dehydrogenase inducer and as the major carbon and energy source for growth. The cells were harvested and washed as described in Example 1. The resting microbial cells of the induced methanol-grown methanol-utilizing methylotrophic microorganisms were then contacted with C3 -C6 secondary alcohols in a buffered solution by the procedure of Example 1.

[2] = tested on: Pseudomonas sp. ATCC 21439; assay: as above; assay type: cell-based; conditions: methanol-grown, obligate
Method: as §1, §2, §3

[3] = tested on: Candida utilis ATCC 26387; assay: Oxidation of sec-alcohols to ketones by cell suspensions of yeasts; assay type: cell-based
[4] = tested on: Torulopsis sp. Strain A1 (NRRL Y-11,419); assay: as above; assay type: cell-based
[5] = tested on: Kloeckera sp. Strain A2 (NRRL Y-11,420); assay: as above; assay type: cell-based
[6] = tested on: cell extracts of Pichia sp. NRRL Y-11,328; assay: NAD+-dependent oxidation of secondary alcohols by cell extracts of yeasts; assay type: biochemical; conditions: grown on methanol, gas chromatography
[7] = tested on: cell extracts of Torulopsis sp. strain A1 NRRL Y-11,419; assay: as above; assay type: biochemical; conditions: for Conversion Rate, secondary alcohol to methylketone: cell extracts, grown on methanol, NAD+, gas chromatography
[8] = tested on: secondary alcohol dehydrogenase (SADH); assay: Activity of purified secondary alcohol dehydrogenase (inhibition, substrate specificity, Km); assay type: biochemical, Pseudomonas sp. ATCC 21439; conditions: for relative percent rate of oxidation: 2-butanol = 100%
Method: Secondary alcohol dehydrogenase (SADH) from an obligate methanol utilizer, Pseudomonas sp. ATCC 21439 was purified as follows. […] 0.05 M sodium phosphate buffer, pH 7.0 with 0.5 mM dithiothretol (buffer A) and were disrupted sonically (5×1 min.). The crude extract was separated by centrifugation. The crude extract was heat-treated at 50° C. in a water bath for 10 minutes. The resulting precipitate was removed by centrifugation. To the supernatant solution, 25 ml of protamine sulfate solution (2% solution in 0.1 M Tris base) was added dropwise with continuous stirring. After standing for 30 minutes, the extract was centrifuged. The supernatant solution was fractionated with solid ammonium sulfate. The material precipitating between 30 and 60% saturation was collected and was dialized overnight against buffer A. The The dialized material was applied to a DEAE-cellulose column (3 cm by 35 cm) that had been equilibrated with buffer A. The secondary alcohol dehydrogenase activity was eluted in the void volume. This DEAE-cellulose eluate was concentrated by ammonium sulfate fractionation. Material precipitating between 30 and 50% ammonium sulfate saturation was collected by centrifugation and dialyzed overnight against A. This fraction was further washed and filtered through an Amicon unit with XM 50 membrane. The concentrated fraction (6 ml) inside the Amicon unit was applied to an Affi-Gel Blue column (0.8 cm×18 cm) which had been equilibrated with buffer A for affinity chromatography. The column was washed overnight with buffer A (0.18 ml./min.) and then was eluted with buffer A containing 5 mM NAD. Each 1 ml. fraction was collected.
The purified secondary alcohol dehydrogenase enzyme (SADH) may be used directly for converting C3 -C6 secondary alcohols to the corresponding methyl ketones by the procedures described above; however, a source of NAD^+ must be added to the reaction medium. One can determine the NAD-linked secondary alcohol dehydrogenase activity with a fluorescence spectrophotometer (Perkin Elmer, Model MPF 44A) by following the formation of reduced NAD (Ex 340 nm, Em 460 nm). The assay system (3 ml.) will typically contain: sodium phosphate buffer pH 7.0, 150 μmol; NAD 1.0 μmol; a given amount of enzyme preparation; and 20 μmol secondary alcohol. The reaction is started by the addition of secondary alcohol. One unit of SADH enzyme activity represents the reduction of one nmole NAD per minute.
The effect of metal-chelating agents and thioreagents on the activity of the purified SADH enzyme were studied. […] The possibility of ethanol or n-propanol as an inhibitor was studied.

[9] = tested on: secondary alcohol dehydrogenase; assay: Activity of purified yeast-derived secondary alcohol dehydrogenase; assay type: biochemical, Pichia sp. NRRL Y-11,328

Row | SMILES | Conversion Rates, sec-alcohol to methyl ketone [1] [μmoles/hr/mg protein] | Conversion Rates, sec-alcohol to methyl ketone [2] [μmoles/hr/mg protein] | Conversion Rate, sec-alcohol to ketone ([3]; growth substrate Ethanol) | Conversion Rate, sec-alcohol to ketone ([3]; growth substrate Methanol) | Conversion Rate, sec-alcohol to ketone ([3]; growth substrate Methylamine) | Conversion Rate, sec-alcohol to ketone ([3]; growth substrate Methylformate) | Conversion Rate, sec-alcohol to ketone ([3]; growth substrate Propylamine) | Conversion Rate, sec-alcohol to ketone ([4]; growth substrate Ethanol) | Conversion Rate, sec-alcohol to ketone ([4]; growth substrate Methanol) | Conversion Rate, sec-alcohol to ketone ([4]; growth substrate Methylamine) | Conversion Rate, sec-alcohol to ketone ([4]; growth substrate Methylformate) | Conversion Rate, sec-alcohol to ketone ([4]; growth substrate Propylamine) | Conversion Rate, sec-alcohol to ketone ([5]; growth substrate Ethanol) | Conversion Rate, sec-alcohol to ketone ([5]; growth substrate Methanol) | Conversion Rate, sec-alcohol to ketone ([5]; growth substrate Methylamine) | Conversion Rate, sec-alcohol to ketone ([5]; growth substrate Methylformate) | Conversion Rate, sec-alcohol to ketone ([5]; growth substrate Propylamine) | Conversion Rate, secondary alcohol to methylketone [6] [μmoles/hr/mg Protein] | Conversion Rate, secondary alcohol to methylketone [7] [μmoles/hr/mg Protein] | substrate specificity of purified SADH (in words) [8] | other results
1 | CCC(C)O (stereo not shown) [2-Butanol, 2-butanol] | 3.5 | 4.7 | 5.2 μmoles/hr/mg of protein | 6.8 μmoles/hr/mg of protein | 5.0 μmoles/hr/mg of protein | 6.2 μmoles/hr/mg of protein | 4.2 μmoles/hr/mg of protein | 4.7 μmoles/hr/mg of protein | 4.9 μmoles/hr/mg of protein | 4.5 μmoles/hr/mg of protein | 4.9 μmoles/hr/mg of protein | 3.8 μmoles/hr/mg of protein | 5.7 μmoles/hr/mg of protein | 5.9 μmoles/hr/mg of protein | 5.4 μmoles/hr/mg of protein | 5.9 μmoles/hr/mg of protein | 4.2 μmoles/hr/mg of protein | 6.2 | 4.9 | highest | specific activities ([7]; spectrophotometric, 2-butanol as substrate): 62 nmoles NAD^+ reduced per min. per mg. protein; substrate specificity of purified yeast secondary alcohol dehydrogenase (in words) [9]: catalyzed the oxidation
2 | CCCCC(C)O (stereo not shown) [2-Hexanol, 2-hexanol] | 0.80 | 0.03 | 0.72 μmoles/hr/mg of protein | 0.8 μmoles/hr/mg of protein | 0.61 μmoles/hr/mg of protein | 0.75 μmoles/hr/mg of protein | 0.52 μmoles/hr/mg of protein | 0.20 μmoles/hr/mg of protein | 0.21 μmoles/hr/mg of protein | 0.12 μmoles/hr/mg of protein | 0.25 μmoles/hr/mg of protein | 0.10 μmoles/hr/mg of protein | 0.12 μmoles/hr/mg of protein | 0.25 μmoles/hr/mg of protein | 0.10 μmoles/hr/mg of protein | 0.28 μmoles/hr/mg of protein | 0.11 μmoles/hr/mg of protein | 0.60 | 0.21 | lower rate | relative percent rate of oxidation [8]: 2%; substrate specificity of purified yeast secondary alcohol dehydrogenase (in words) ([9]; spectrophotometric): catalyzed the oxidation
3 | CCCC(C)O (stereo not shown) [2-Pentanol, 2-pentanol] | 2.1 | 0.05 | 1.0 μmoles/hr/mg of protein | 1.5 μmoles/hr/mg of protein | 1.2 μmoles/hr/mg of protein | 1.3 μmoles/hr/mg of protein | 0.9 μmoles/hr/mg of protein | 1.2 μmoles/hr/mg of protein | 1.0 μmoles/hr/mg of protein | 0.9 μmoles/hr/mg of protein | 1.1 μmoles/hr/mg of protein | 0.62 μmoles/hr/mg of protein | 1.0 μmoles/hr/mg of protein | 1.2 μmoles/hr/mg of protein | 1.0 μmoles/hr/mg of protein | 1.2 μmoles/hr/mg of protein | 0.92 μmoles/hr/mg of protein | 1.2 | 1.0 | lower rate | relative percent rate of oxidation [8]: 5%; substrate specificity of purified yeast secondary alcohol dehydrogenase (in words) ([9]; spectrophotometric): catalyzed the oxidation
4 | CC(C)O [2-Propanol, 2-propanol] | 0.80 | 7.4 | 5.2 μmoles/hr/mg of protein | 6.2 μmoles/hr/mg of protein | 5.0 μmoles/hr/mg of protein | 5.6 μmoles/hr/mg of protein | 4.2 μmoles/hr/mg of protein | 4.2 μmoles/hr/mg of protein | 4.5 μmoles/hr/mg of protein | 4.3 μmoles/hr/mg of protein | 4.5 μmoles/hr/mg of protein | 3.2 μmoles/hr/mg of protein | 4.5 μmoles/hr/mg of protein | 4.8 μmoles/hr/mg of protein | 4.0 μmoles/hr/mg of protein | 4.9 μmoles/hr/mg of protein | 4.0 μmoles/hr/mg of protein | 5.5 | 4.5 | highest | relative percent rate of oxidation [8]: 85%; substrate specificity of purified yeast secondary alcohol dehydrogenase (in words) ([9]; spectrophotometric): catalyzed the oxidation

From patent US4268630A, “Microbiological production of ketones from C3 -C6 alkanes” (priority 1979, dated 1981)
